Source: article doi:10.1101/2021.12.22.473926v1 (biorxiv, 2021)

Target: cruzain (Trypanosoma cruzi, UniProt P25779)
Experiment: fluorimetric Z-FR-AMC cleavage, initial rates
Type: biochemical

Chain of cruzain (P25779 123-337): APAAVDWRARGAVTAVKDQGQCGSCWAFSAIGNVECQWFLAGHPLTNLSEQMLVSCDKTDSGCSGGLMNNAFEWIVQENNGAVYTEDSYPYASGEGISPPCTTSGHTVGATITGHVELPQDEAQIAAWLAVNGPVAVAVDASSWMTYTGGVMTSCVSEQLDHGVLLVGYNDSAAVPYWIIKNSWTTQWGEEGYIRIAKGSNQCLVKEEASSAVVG

`CC(C)C[C@H](NC(=O)[C@H]1O[C@@H]1C(=O)O)C(=O)NCCCCN=C(N)N` [E-64, trans-Epoxysuccinyl-L-leucylamido(4-guanidino)butane, reference compound] gave an IC50 of 29.7 ± 9.16 nM.
